# In publication PMC8989888, “Development of optimized drug-like small molecule inhibitors of the SARS-CoV-2 3CL protease for treatment of COVID-19” (Nature Communications, 2022):
# Several values for one entry are separate records, joined by “and”; a condition that tells them apart may be missing. Equal entries are not always repeated.
# Experiments:
# SARS-CoV-2 3CL protease [1] = target: T1, SARS-CoV-2 3CL protease (Severe acute respiratory syndrome coronavirus 2, UniProt P0DTD1); assay: biochemical; details: for Normalized SARS-CoV-2 3CL protease activity: 0.2 µM protease with 50 µM tested compound; for Normalized SARS-CoV-2 3CL protease activity / % SARS-CoV-2 3CL activity: replicates
# SARS-CoV-2 3CL protease [2] = target: T1, SARS-CoV-2 3CL protease; assay: cell-based
# SARS-CoV-2 = assay: microbe, parasite or virus in culture; type: cell-based; details: Severe acute respiratory syndrome coronavirus 2, Vero C1008, 72 h, read-out: EC50, inhibition of SARS-CoV-2 viral replication
# SARS-CoV-2 3CL protease [3] = target: T1, SARS-CoV-2 3CL protease; type: binding; details: ITC
# SARS-CoV-2 3CL protease [4] = target: T1, SARS-CoV-2 3CL protease; type: binding
# human chymotrypsin = assay: Chymotrypsin activity assay (Panc-1 cell lysate); type: biochemical; details: 10µM compound; 100 µg Panc-1 cell lysate; replicates
structure (smiles),measurement,setting,value
N#CCc1cccc(C(=O)Oc2cncc(Cl)c2)c1 [Z50],Normalized SARS-CoV-2 3CL protease activity,SARS-CoV-2 3CL protease [1],0.05574 and 0.08721 and 0.4348
same,"Absorbance (crystal violet), SARS-CoV-2 3CLpro",SARS-CoV-2 3CL protease [2],0.1475 and 0.1394
O=C(Oc1cncc(Br)c1)c1cc2c([nH]c1=O)CCCC2 [Z61],Normalized SARS-CoV-2 3CL protease activity,SARS-CoV-2 3CL protease [1],0.4525 and 0.1738 and 0.3423
same,"Absorbance (crystal violet), SARS-CoV-2 3CLpro",SARS-CoV-2 3CL protease [2],0.1155 and 0.1264
CCn1nc(C)c(C(=O)Oc2cncc(Cl)c2)c1Cl [Z65],Normalized SARS-CoV-2 3CL protease activity,SARS-CoV-2 3CL protease [1],0.223 and 0.2216 and 0.2302
same,"Absorbance (crystal violet), SARS-CoV-2 3CLpro",SARS-CoV-2 3CL protease [2],0.1475 and 0.1384
Cc1ncsc1C(=O)Oc1cncc(Cl)c1 [Z91],% SARS-CoV-2 3CL activity,"SARS-CoV-2 3CL protease [1]; 20 nM protease, log10[nM] 0.19382",84.3886% and 89.3518%
same,% SARS-CoV-2 3CL activity,"SARS-CoV-2 3CL protease [1]; 20 nM protease, log10[nM] 0.49485",71.2882% and 83.5648%
same,% SARS-CoV-2 3CL activity,"SARS-CoV-2 3CL protease [1]; 20 nM protease, log10[nM] 0.79588",67.1397% and 68.9815%
same,% SARS-CoV-2 3CL activity,"SARS-CoV-2 3CL protease [1]; 20 nM protease, log10[nM] 1.09691",60.4804% and 65.625%
same,% SARS-CoV-2 3CL activity,"SARS-CoV-2 3CL protease [1]; 20 nM protease, log10[nM] 1.39794",57.3144% and 59.9537%
same,% SARS-CoV-2 3CL activity,"SARS-CoV-2 3CL protease [1]; 20 nM protease, log10[nM] 1.69897",31.5502% and 53.125%
same,% SARS-CoV-2 3CL activity,"SARS-CoV-2 3CL protease [1]; 20 nM protease, log10[nM] 2",18.6681% and 32.7546%
same,% SARS-CoV-2 3CL activity,"SARS-CoV-2 3CL protease [1]; 20 nM protease, log10[nM] 2.30103",6.9869% and 23.0324%
same,% SARS-CoV-2 3CL activity,"SARS-CoV-2 3CL protease [1]; 20 nM protease, log10[nM] 2.60206",2.62% and 4.745%
same,% SARS-CoV-2 3CL activity,"SARS-CoV-2 3CL protease [1]; 20 nM protease, log10[nM] 2.90309",0%
same,% SARS-CoV-2 3CL activity,"SARS-CoV-2 3CL protease [1]; 20 nM protease, log10[nM] -0.10721",87.0087% and 88.8889%
same,% SARS-CoV-2 3CL activity,"SARS-CoV-2 3CL protease [1]; 20 nM protease, log10[nM] -0.40824",100%
same,IC50,"SARS-CoV-2 3CL protease [1]; 20 nM protease, read-out: SARS-CoV-2 3CLpro IC50",0.031 µM
same,Normalized SARS-CoV-2 3CL protease activity,SARS-CoV-2 3CL protease [1],0.02131 and 0.02295 and 0.01967
same,"Absorbance (crystal violet), SARS-CoV-2 3CLpro",SARS-CoV-2 3CL protease [2],0.1428 and 0.134
CN(C)S(=O)(=O)c1ccc(C(=O)Oc2cc(Cl)c[nH]c2=O)cc1 [Z97],Normalized SARS-CoV-2 3CL protease activity,SARS-CoV-2 3CL protease [1],0.9508 and 0.9056 and 0.9639
same,"Absorbance (crystal violet), SARS-CoV-2 3CLpro",SARS-CoV-2 3CL protease [2],0.1516 and 0.1477
"O=c1c2ccccc2[se]n1-c1ccccc1 [ebselen, reference compound]",EC50,SARS-CoV-2,0.8 µM
same,% SARS-CoV-2 3CL activity,"SARS-CoV-2 3CL protease [1]; 200 nM protease, log10[nM] 0.404879",89.3778% and 107.442% and 103.181%
same,% SARS-CoV-2 3CL activity,"SARS-CoV-2 3CL protease [1]; 200 nM protease, log10[nM] 0.882",94.9547% and 93.3775% and 98.4402%
same,% SARS-CoV-2 3CL activity,"SARS-CoV-2 3CL protease [1]; 200 nM protease, log10[nM] 1.35912",94.2663% and 88.5936% and 99.7037%
same,% SARS-CoV-2 3CL activity,"SARS-CoV-2 3CL protease [1]; 200 nM protease, log10[nM] 1.83624",88.0185% and 85.2126% and 81.8055%
same,% SARS-CoV-2 3CL activity,"SARS-CoV-2 3CL protease [1]; 200 nM protease, log10[nM] 2.31336",61.5633% and 42.9069% and 50.6187%
same,% SARS-CoV-2 3CL activity,"SARS-CoV-2 3CL protease [1]; 200 nM protease, log10[nM] 2.79048",10.2823% and 8.339% and 9.272%
same,% SARS-CoV-2 3CL activity,"SARS-CoV-2 3CL protease [1]; 200 nM protease, log10[nM] 3.26761",7.59% and 9.629% and 7.886%
same,% SARS-CoV-2 3CL activity,"SARS-CoV-2 3CL protease [1]; 200 nM protease, log10[nM] 3.74473",6.213% and 7.476% and 5.15%
same,% SARS-CoV-2 3CL activity,"SARS-CoV-2 3CL protease [1]; 200 nM protease, log10[nM] 4.22185",3.895% and 5.307% and 2.98%
same,% SARS-CoV-2 3CL activity,"SARS-CoV-2 3CL protease [1]; 200 nM protease, log10[nM] 4.69897",-2.597% and 1.403% and 1.1938%
same,% SARS-CoV-2 3CL activity,"SARS-CoV-2 3CL protease [1]; 200 nM protease, log10[nM] -0.0722425",107.261% and 104.787% and 112.511%
same,% SARS-CoV-2 3CL activity,"SARS-CoV-2 3CL protease [1]; 200 nM protease, log10[nM] -0.549364",92.7537% and 98.0597% and 109.187%
same,binding stoichiometry,SARS-CoV-2 3CL protease [3],didn’t reach saturation until a high molar ratio
same,binding to 3CL protease by mass spectrometry (in words),SARS-CoV-2 3CL protease [4],binding of multiple ebselen molecules to each 3CL protease molecule
same,Normalized chymotrypsin activity,human chymotrypsin,0.8849 and 0.7812 and 0.7681
